Source: patent US12152034B2, “FGFR inhibitors and methods of making and using the same” (Relay Therapeutics, Inc., priority 2020, dated 2024)
Several values for one entry are separate records, joined by “and”; a condition that tells them apart may be missing. Identical values can stand only once. Entries after “also recorded” stand apart in the source; their conditions may differ. Like-named read-outs stand apart in the source and are kept apart here. One block for each molecule: values may come before it.

Key:
Format in all cases: physicochemical
[1] = Storage at 40° C./75% RH for 7 days (one week), form checked by XRPD; conditions: for Storage at 40° C./75% RH for one week (row head not given): Compound IV salts; for Storage at 40° C./75% RH for one week (row head not given) / Storage at 40° C./75% RH for 7 days: form by XRPD; for XRPD after storage at 40° C./75% RH for 7 days: one week (7 days); for Storage at 40° C./75% RH for 7 days: Compound III salts
Description: The suspensions were then cooled down to 5° C. at 0.1° C./min and were held at this temperature for 16 hrs. Stirring (500 rpm) was maintained throughout. Any gums that formed were maturated between 25 and 50° C. (4 hours at each temperature for 24 hrs). The suspensions were isolated by filtration under suction and air dried then analysed by XRPD. Any new patterns identified by XRPD were analysed further by NMR, TGA, DSC and stability at 40 C/75% RH for 1 week.

[2] = Solubility measurements in SGF, FeSSIF and FaSSIF with XRPD of residual solids; conditions: for solubility in all media (in words): FeSSIF and FaSSIF; for solubility in FeSSIF (in words): simulated fed state intestinal fluid; for Average Solubility / XRPD of residual solid / pH at 24 hrs / Solubility: Compound III-1, HCl and sulfate salts; for Solubility: single replicate
Description: The results from the solubility measurements in simulated gastric fluid (SGF), simulated fed state conditions in the small intestines (FeSSIF), and simulated fasting state conditions in the small intestines fluid (FaSSIF) are summarised in Table 12. The salts show reduced solubility in SGF compared to the free form.
Crystalline FB Form A, HCl Form A, and the sufate salt Form A were scaled up for solubility analysis.
HCl Form A was successfully scaled up for solubility analysis.

[3] = Solubility assessment in solvents by aliquot addition (5-40 vol, 25° C., then heating)
Description: Compound II-1 (40 mg) was treated with an aliquot of solvent (200 μl for 5 vol, 400 μl for 10 vol, 800 μl for 20 vol) and left to stir at 25° C. for 15 minutes. After 15 minutes, suspensions were treated with another aliquot of solvent and left to stir for the same duration again. Any solutions were removed from stirring and further solvent additions. This procedure was repeated up to 40 vol.
At 40 vol, any remaining suspensions were heated to 40° C. at a rate of 10° C./min. Samples that remained as suspensions at 40° C. were moved to the maturation chamber (RT/50° C.) for 4 days. All solutions from solvent additions were heated to 50° C. before cooling to 5° C. at a rate of 0.1° C./min, then held at 5° C. overnight. […]

[4] = simulated fasting state intestinal fluid

Compound: C#Cc1cc(C)c(-c2c(-c3ccc(Oc4nccc(C)n4)c(F)c3)c3c(C)ncnc3n2C)c(C)n1.O=S(=O)(O)c1ccccc1 [BSA Form A]
- Storage at 40° C./75% RH for one week (row head not given) [1]: Change in form -

Compound: C=C(C)C(=O)Nc1ccc(-c2c(C3=CC[C@H](C(=O)N4CCCC4)CC3)c3c(N)ncnc3n2C)c(C)c1.Cl [Compound II-2]
- XRPD after storage at 40° C./75% RH for 7 days [1]: no change

Compound: Br.C=C(C)C(=O)Nc1ccc(-c2c(C3=CC[C@H](C(=O)N4CCCC4)CC3)c3c(N)ncnc3n2C)c(C)c1 [Compound II-3]
- XRPD after storage at 40° C./75% RH for 7 days [1]: convert to an amorphous form

Compound: C=C(C)C(=O)Nc1ccc(-c2c(C3=CC[C@H](C(=O)N4CCCC4)CC3)c3c(N)ncnc3n2C)c(C)c1.Cc1ccc(S(=O)(=O)O)cc1 [Compound II-4]
- solubility in FaSSIF (in words) [2]: highest solubility
- XRPD after storage at 40° C./75% RH for 7 days ([1]; listed as Compound II pTSA Form A): XRPD unchanged
- XRPD after storage at 40° C./75% RH for 7 days ([1]; listed as Compound II pTSA Form B): conversion to pTSA Form A; also recorded: Converted to pTSA
- XRPD after storage at 40° C./75% RH for 7 days ([1]; listed as Compound II pTSA Form C): conversion to pTSA Form A; also recorded: Converted to pTSA
- XRPD after storage at 40° C./75% RH for 7 days ([1]; listed as Compound II-1 tosylate salt): no change

Compound: C=C(C)C(=O)Nc1ccc(-c2c(C3=CC[C@H](C(=O)N4CCCC4)CC3)c3c(N)ncnc3n2C)c(C)c1.O=S(=O)(O)c1ccccc1 [Compound II-6]
- solubility in all media (in words) ([2]; SGF): low solubility
- XRPD after storage at 40° C./75% RH for 7 days [1]: no change

Compound: C=C(C)C(=O)Nc1ccc(-c2c(C3=CC[C@H](C(=O)N4CCCC4)CC3)c3c(N)ncnc3n2C)c(C)c1.O=C(O)/C=C/C(=O)O [Compound II-7]
- XRPD after storage at 40° C./75% RH for 7 days [1]: no change

- XRPD of residual solids after solubility measurement ([2]; FaSSIF): new form
- solubility in FeSSIF (in words) [2]: lower solubility than the free form
- XRPD after storage at 40° C./75% RH for 7 days ([1]; listed as Compound III HCl Form A): converting to HCl Form B
- XRPD after storage at 40° C./75% RH for 7 days ([1]; listed as Compound III HCl Form B): large reduction in crystallinity
- XRPD after storage at 40° C./75% RH for 7 days ([1]; listed as Compound III HCl Form D): no change in form
- XRPD after storage at 40° C./75% RH for 7 days ([1]; listed as Compound III HCl Patterns 3 and 5): no change in form
- XRPD after storage at 40° C./75% RH for 7 days ([1]; listed as Compound III-1 chloride salt): change form
Compound: C#Cc1cc(OC)c(-c2c(-c3ccc(Oc4nccc(C)n4)c(F)c3)c3c(C)ncnc3n2C)cn1.Cl [Compound III-2]

- XRPD after storage at 40° C./75% RH for 7 days [1]: change form
Compound: Br.C#Cc1cc(OC)c(-c2c(-c3ccc(Oc4nccc(C)n4)c(F)c3)c3c(C)ncnc3n2C)cn1 [Compound III-3]

- XRPD of residual solids after solubility measurement ([2]; FaSSIF): too poorly crystalline to assign
- XRPD after storage at 40° C./75% RH for 7 days ([1]; listed as Compound III-1 sulfate salt): small changes in the XRPD diffractogram
Compound: C#Cc1cc(OC)c(-c2c(-c3ccc(Oc4nccc(C)n4)c(F)c3)c3c(C)ncnc3n2C)cn1.O=S(=O)(O)O [Compound III-4]
- solubility in FaSSIF (in words) [2, 4]: slightly more soluble than the chloride salt
- solubility in FeSSIF (in words) [2]: slightly more soluble than the chloride salt

- XRPD after storage at 40° C./75% RH for 7 days [1]: lose crystallinity
Compound: C#Cc1cc(OC)c(-c2c(-c3ccc(Oc4nccc(C)n4)c(F)c3)c3c(C)ncnc3n2C)cn1.CS(=O)(=O)O [Compound III-5]

- XRPD after storage at 40° C./75% RH for 7 days [1]: No change in form
Compound: C#Cc1cc(OC)c(-c2c(-c3ccc(Oc4nccc(C)n4)c(F)c3)c3c(C)ncnc3n2C)cn1.O=C(O)C(O)C(O)C(=O)O [Compound III-6]

Compound: C#Cc1cc(C)c(-c2c(-c3ccc(Oc4nccc(C)n4)c(F)c3)c3c(C)ncnc3n2C)c(C)n1 [Compound IV-1, 6-(6-ethynyl-2,4-dimethylpyridin-3-yl)-5-(3-fluoro-4-((4-methylpyrimidin-2-yl)oxy)phenyl)-4,7-dimethyl-7H-pyrrolo[2,3-d]pyrimidine]
- XRPD of residual solids after solubility measurement ([2]; all media (SGF, FeSSIF, FaSSIF)): remained unchanged
- solubility in FaSSIF (in words) [2, 4]: lowest solubility
- Observation after treatment ([3]; 2-Propanol, after cooling from 50° C. to 5° C.): Clear solution
- Observation after treatment ([3]; 10% Water/IPA, after cooling from 50° C. to 5° C.): Clear solution
- Observation after treatment ([3]; 10% Water/MeCN, after cooling from 50° C. to 5° C.): Clear solution
- solubility in the solvents tested (in words) ([3]; 13 solvents, up to 40 vol): soluble in all but three of the solvents tested
- Observation after treatment ([3]; Acetone, after cooling from 50° C. to 5° C.): Clear solution
- Observation after treatment ([3]; Ethanol, after cooling from 50° C. to 5° C.): Clear solution
- Observation after treatment ([3]; Ethyl acetate, after cooling from 50° C. to 5° C.): Clear solution
- Observation after treatment ([3]; Isopropyl acetate, after cooling from 50° C. to 5° C.): Clear solution
- Observation after treatment ([3]; MEK, after cooling from 50° C. to 5° C.): Clear solution
- Observation after treatment ([3]; Methanol, after cooling from 50° C. to 5° C.): Clear solution
- Observation after treatment ([3]; TBME, 40 vol, after maturation (RT/50° C.) 4 days): Suspension
- Observation after treatment ([3]; THF, after cooling from 50° C. to 5° C.): Clear solution
- Observation after treatment ([3]; Water, 40 vol, after maturation (RT/50° C.) 4 days): Suspension
- Observation after treatment ([3]; n-Heptane, 40 vol, after maturation (RT/50° C.) 4 days): Suspension

Compound: C#Cc1cc(C)c(-c2c(-c3ccc(Oc4nccc(C)n4)c(F)c3)c3c(C)ncnc3n2C)c(C)n1.Cl [Compound IV-2]
- XRPD of residual solids after solubility measurement ([2]; FaSSIF): converted to free form Form A
- XRPD of residual solids after solubility measurement ([2]; FeSSIF): converted to free form Form A
- solubility in all media (in words) ([2]; SGF): more soluble than the tosylate salt
- solubility in SGF (in words) ([2]; simulated gastric fluid): completely dissolved
- XRPD after storage at 40° C./75% RH for 7 days [1]: no change to form

Compound: C#Cc1cc(C)c(-c2c(-c3ccc(Oc4nccc(C)n4)c(F)c3)c3c(C)ncnc3n2C)c(C)n1.Cc1ccc(S(=O)(=O)O)cc1 [Compound IV-3]
- XRPD of residual solids after solubility measurement ([2]; FaSSIF): remained unchanged
- XRPD of residual solids after solubility measurement ([2]; FeSSIF): too poorly crystalline to assign
- XRPD of residual solids after solubility measurement ([2]; SGF): remained unchanged
- XRPD after storage at 40° C./75% RH for 7 days ([1]; listed as Compound IV pTSA Form A): pTSA Form B
- XRPD after storage at 40° C./75% RH for 7 days ([1]; listed as Compound IV-1 tosylate salt): change form

Compound: C#Cc1cc(C)c(-c2c(-c3ccc(Oc4nccc(C)n4)c(F)c3)c3c(C)ncnc3n2C)c(C)n1.CS(=O)(=O)O [Compound IV-4]
- XRPD after storage at 40° C./75% RH for 7 days [1]: lose crystallinity

Compound: C#Cc1cc(C)c(-c2c(-c3ccc(Oc4nccc(C)n4)c(F)c3)c3c(C)ncnc3n2C)c(C)n1.O=S(=O)(O)c1ccccc1 [Compound IV-5]
- XRPD after storage at 40° C./75% RH for 7 days [1]: change form

- Storage at 40° C./75% RH for 7 days [1]: Change in form -
Compound: Br.C#Cc1cc(OC)c(-c2c(-c3ccc(Oc4nccc(C)n4)c(F)c3)c3c(C)ncnc3n2C)cn1 [HBr Form A]

Compound: C#Cc1cc(C)c(-c2c(-c3ccc(Oc4nccc(C)n4)c(F)c3)c3c(C)ncnc3n2C)c(C)n1.Cl [HC1 Form A]
- Storage at 40° C./75% RH for one week (row head not given) [1]: Reduced crystallinity -

- Average Solubility ([2]; FaSSIF): 1950 µg/mL
- XRPD of residual solid ([2]; FaSSIF): Poorly crystalline
- pH at 24 hrs ([2]; FaSSIF): 2.6 and 2.7
- Solubility ([2]; FaSSIF): 2000 µg/mL and 1900 µg/mL
- Average Solubility ([2]; FeSSIF): 230 µg/mL
- XRPD of residual solid ([2]; FeSSIF): FB Form C
- pH at 24 hrs ([2]; FeSSIF): 4.4
- Solubility ([2]; FeSSIF): 240 µg/mL and 220 µg/mL
- Average Solubility ([2]; SGF): >10500 µg/mL
- pH at 24 hrs ([2]; SGF): 1.7
- Solubility ([2]; SGF): >10200 µg/mL and >10700 µg/mL
Compound: C#Cc1cc(OC)c(-c2c(-c3ccc(Oc4nccc(C)n4)c(F)c3)c3c(C)ncnc3n2C)cn1.O=S(=O)(O)O [SO4 Form A]

- Storage at 40° C./75% RH for 7 days [1]: No change
Compound: C#Cc1cc(OC)c(-c2c(-c3ccc(Oc4nccc(C)n4)c(F)c3)c3c(C)ncnc3n2C)cn1.O=C(O)C(O)C(O)C(=O)O [TAR Form A]

Compound: C#Cc1cc(C)c(-c2c(-c3ccc(Oc4nccc(C)n4)c(F)c3)c3c(C)ncnc3n2C)c(C)n1.Cc1ccc(S(=O)(=O)O)cc1 [pTSA Form A]
- Storage at 40° C./75% RH for one week (row head not given) [1]: Change in form -
